Assay in all cases: NCI-60 cell line screen, 48 h
The test system of experiment [1] is 786-0.
Experiment [2] has as its system COLO 205.
For experiment [3], the system named is HOP-92.
For experiment [4], the system named is HT-29.
The test system of experiment [5] is Hs-578T.
Experiment [6] concerns K562.
In experiment [7] the test system is KM12.
The test system of experiment [8] is NCI-H226.
For experiment [9], the system named is NCI-H522.
Experiment [10] deals with OVCAR-4.
The test system of experiment [11] is OVCAR-8.
Experiment [12] relates to RPMI-8226.
In experiment [13] the test system is RXF 393.
In experiment [14] the test system is SF-539.
Experiment [15] concerns SK-MEL-2.
The subject of experiment [16] is SN12C.
The subject of experiment [17] is SNB-19.
Experiment [18] deals with SNB-75.
Experiment [19] relates to SR.
The subject of experiment [20] is T47D.

The structures appear in SMILES notation.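 These data come from cells grown in 96-well plates and exposed to compound for 48 hours at five concentrations. GI50 = concentration required for 50% inhibition of growth.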 The source made the active and inactive calls. Rule as the data show it: active = GI50 up to about 1.1 µM and inactive = higher. Starred links: 1 amine or outer side, 2 acyl side, 3 side chain; linkers in the order of their positions; H or OH if unused. Non-standard residues stand in square brackets, D forms with d. Residues, ends and D or L forms follow the SMILES beside them. *: point of attachment. X34 = CC(=O)N(C)SCC(N[*:1])C(=O)[*:2]; Cbz = O=C(OCc1ccccc1)*; Bn = c1ccc(C*)cc1; For = O=C*

Turning to `COC(=O)c1ccc(-n2c(C)nc(=O)c(-c3ccccc3)c2C)cc1`, the GI50 in experiment [1], in [2], in experiment [3], in experiment [4], in [5] and in [6] was > 100 µM (inactive) throughout. Further, the GI50 in experiment [7], in experiment [8], in [9], in experiment [10], in experiment [11] and in experiment [12] was > 100 µM (inactive) each time. For the same molecule, the GI50 was > 100 µM (inactive) in experiment [13]; 74 µM (inactive) in experiment [14]; 30.7 µM (inactive) in [15]; > 100 µM (inactive) in experiment [16]; > 100 µM (inactive) in experiment [17]; > 100 µM (inactive) in experiment [18]. Further, the GI50 in experiment [19] and in experiment [20] was > 100 µM (inactive) each time.

Consider `CCCCCCCCCCCCCC(=O)N(CCCCCCCCC)CC(O)C(O)C(OC1OC(CO)C(O)C(O)C1O)C(O)CO` (stereo not given), for which the GI50 was 17.1 µM (inactive) in experiment [1]; 20.5 µM (inactive) in experiment [2]; 17.3 µM (inactive) in [3]; 18.5 µM (inactive) in experiment [4]; 22.5 µM (inactive) in experiment [5]; 19.9 µM (inactive) in [6]. The GI50 in [7] was 17.7 µM (inactive); in experiment [8] it was 18.7 µM (inactive); in [9] it was 23 µM (inactive); in experiment [10], 24 µM (inactive); in experiment [11] it was 20.8 µM (inactive); in experiment [12] it was 29.9 µM (inactive). Further, the GI50 in [13] was 24.3 µM (inactive); in experiment [14], 22 µM (inactive); in experiment [15] it was 24.6 µM (inactive); in experiment [16], 19.8 µM (inactive); in experiment [17], 24.5 µM (inactive); in [18], 19.5 µM (inactive). Besides, the GI50 is 25.6 µM (inactive) in experiment [19] and 19.1 µM (inactive) in [20].

Consider `COc1ccc(/N=C(/SS/C(=N/c2ccc(OC)cc2)c2ccc([N+](=O)[O-])o2)c2ccc([N+](=O)[O-])o2)cc1`, for which the GI50 in [1] is 0.719 µM (active); in experiment [2], 1.92 µM (inactive); in experiment [3] it was 3.53 µM (inactive); in experiment [4], 0.701 µM (active); in [5], 2.19 µM (inactive); in [6] it was 1.19 µM (inactive). The GI50 is 1.14 µM (inactive) in experiment [7]; 10.1 µM (inactive) in experiment [8]; 0.286 µM (active) in [9]; 1.42 µM (inactive) in [10]; 1.37 µM (inactive) in experiment [11]; 0.489 µM (active) in experiment [12]. For the same molecule, the GI50 in experiment [13] is 0.695 µM (active); in experiment [14] it was 1.49 µM (inactive); in experiment [15], 2.08 µM (inactive); in experiment [16] it was 1.95 µM (inactive); in experiment [17], 1.38 µM (inactive); in experiment [18] it was 1.27 µM (inactive). For the same molecule, the values for the GI50 in experiment [19] and in experiment [20] were 0.547 µM (active) and 1.61 µM (inactive), respectively.

As to `CCSc1nc(N2CCOCC2)c2cn[nH]c2n1`, the GI50 was > 100 µM (inactive) in [1]; 39.7 µM (inactive) in experiment [2]; 48 µM (inactive) in experiment [3]; > 100 µM (inactive) in experiment [4]; 33.9 µM (inactive) in experiment [5]; > 100 µM (inactive) in experiment [6]. The GI50 is 58.9 µM (inactive) in experiment [7]; > 100 µM (inactive) in [8]; 35 µM (inactive) in experiment [9]; 62.5 µM (inactive) in [10]; > 100 µM (inactive) in [11]; 37.5 µM (inactive) in experiment [12]. The GI50 in experiment [13] was > 100 µM (inactive); in [14], > 100 µM (inactive); in experiment [15], 41.5 µM (inactive); in experiment [16], 52.5 µM (inactive); in experiment [17] it was > 100 µM (inactive); in [18] it was 71.1 µM (inactive). The values for the GI50 in [19] and in experiment [20] were 56.1 µM (inactive) and 9.73 µM (inactive), respectively.

For `O=c1[nH]c2cc([N+](=O)[O-])c(N(CCO)CCO)c([N+](=O)[O-])c2[nH]1`, the GI50 in [1] is 35.4 µM (inactive); in experiment [2] it was 20 µM (inactive); in experiment [3], 41 µM (inactive); in experiment [4], 30.3 µM (inactive); in experiment [5] it was 53.2 µM (inactive); in experiment [6], 32 µM (inactive). In addition, the GI50 in experiment [7] is 22.6 µM (inactive); in [8] it was 24 µM (inactive); in [9], 28.1 µM (inactive); in [10], 36 µM (inactive); in experiment [11], 31.3 µM (inactive); in experiment [12], 26.7 µM (inactive). In addition, the GI50 was 16.7 µM (inactive) in experiment [13]; 23.8 µM (inactive) in experiment [14]; 37.6 µM (inactive) in experiment [15]; 34.8 µM (inactive) in experiment [16]; 39.8 µM (inactive) in experiment [17]; 23.6 µM (inactive) in [18]. For the same molecule, the GI50 in experiment [19] is 24.1 µM (inactive); in [20], 19.5 µM (inactive).

As for `O=C(O)CC1NCc2cc3ccccc3nc21` (stereo not given), the GI50 in experiment [1], in experiment [2], in [3], in experiment [4], in [5] and in experiment [6] was > 100 µM (inactive) in each case. In addition, the GI50 in experiment [7], in experiment [8], in experiment [9], in experiment [10], in experiment [11] and in experiment [12] was > 100 µM (inactive) throughout. Besides, the GI50 in experiment [13], in [14], in [15], in experiment [16], in experiment [17] and in [18] was > 100 µM (inactive) throughout. Besides, the GI50 in experiment [19] and in experiment [20] was > 100 µM (inactive) each time.

On to `CSCCC(N)C(=O)NCCNc1ccc(NCCNC(=O)C(N)CCSC)c2c1C(=O)c1ccccc1C2=O` (stereo not given), for which the GI50 in [1] was 0.308 µM (active); in experiment [2], 1.16 µM (inactive); in experiment [3], 1.1 µM (active); in experiment [4], 0.535 µM (active); in experiment [5], 1.02 µM (active); in experiment [6], 1.42 µM (inactive). Besides, the GI50 in [7] was 1.27 µM (inactive); in experiment [8], 1.08 µM (active); in [9], 0.199 µM (active); in experiment [10], 1.67 µM (inactive); in experiment [11], 0.441 µM (active); in experiment [12], 1.35 µM (inactive). Further, the GI50 in experiment [13] is 1.91 µM (inactive); in experiment [14], 0.973 µM (active); in experiment [15], 3.41 µM (inactive); in experiment [16] it was 0.374 µM (active); in experiment [17], 0.927 µM (active); in experiment [18], 1.57 µM (inactive). Besides, the GI50 is 0.197 µM (active) in experiment [19] and 2.5 µM (inactive) in experiment [20].

For `COc1ccc(/C=C/c2cc(O)cc(OC)c2)cc1`, the GI50 is > 100 µM (inactive) in experiment [1]; > 100 µM (inactive) in [2]; 50.7 µM (inactive) in experiment [3]; > 100 µM (inactive) in experiment [4]; > 100 µM (inactive) in experiment [5]; 67.9 µM (inactive) in [6]. Also, the GI50 in [7] was 40.9 µM (inactive); in experiment [8] it was > 100 µM (inactive); in experiment [9], 65.3 µM (inactive); in [10], > 100 µM (inactive); in [11] it was > 100 µM (inactive); in experiment [12] it was 22.3 µM (inactive). The GI50 in [13] is > 100 µM (inactive); in [14] it was > 100 µM (inactive); in [15], > 100 µM (inactive); in [16], 65.2 µM (inactive); in [17] it was > 100 µM (inactive); in experiment [18], > 100 µM (inactive). Further, the GI50 in [19] and in experiment [20] was > 100 µM (inactive) throughout.

Consider `CC(=O)N(C)SCC(NC(=O)C(Cc1ccccc1)NC(=O)OCc1ccccc1)C(=O)NC(Cc1ccccc1)C(=O)NC(Cc1cn(C=O)c2ccccc12)C(=O)NC(CCCCNC(=O)OCc1ccccc1)C(=O)NC(C(=O)NC(CSN(C)C(C)=O)C(=O)NC(C(N)=O)C(C)OCc1ccccc1)C(C)OCc1ccccc1` (stereo not given) (Cbz-F[X34]FW(For)K(Cbz)T(Bn)[X34]T(Bn)-NH2; configuration not given here), for which the GI50 is 24.1 µM (inactive) in [1]; > 100 µM (inactive) in experiment [2]; 19.7 µM (inactive) in experiment [3]; > 100 µM (inactive) in [4]; 8.63 µM (inactive) in experiment [5]; > 100 µM (inactive) in experiment [6]. Moreover, the GI50 in experiment [7] is > 100 µM (inactive); in experiment [8], > 100 µM (inactive); in experiment [9] it was 87.9 µM (inactive); in experiment [10] it was 54.2 µM (inactive); in experiment [11] it was 26.1 µM (inactive); in experiment [12] it was > 100 µM (inactive). Also, the GI50 was 14.6 µM (inactive) in experiment [13]; 44 µM (inactive) in experiment [14]; 3.77 µM (inactive) in [15]; > 100 µM (inactive) in experiment [16]; 18.7 µM (inactive) in experiment [17]; 11.3 µM (inactive) in experiment [18]. Further, the GI50 in experiment [19] and in experiment [20] was > 100 µM (inactive) each time.

For the origin of these results see ChEMBL document CHEMBL1201862, “PubChem BioAssay data set” (2004).
